Measured values reported in PubChem BioAssay (NCI).
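Test compounds were applied to cells in 96-well plates for 48 hours at 5 doses. Abbreviation: GI50, concentration required for 50% inhibition of growth. The concentration for full growth arrest is given as TGI.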

Legend:
Assay in all cases: DTP human tumour cell line panel, 48 h
CAKI-1 renal = test system: CAKI-1 renal
CCRF-CEM leukemia = test system: CCRF-CEM leukemia
EKVX NSCLC = test system: EKVX NSCLC
HS 578T breast = test system: HS 578T breast
LOX IMVI melanoma = test system: LOX IMVI melanoma
NCI-H226 lung = test system: NCI-H226 lung
SF-539 CNS = test system: SF-539 CNS
SK-MEL-2 melanoma = test system: SK-MEL-2 melanoma
SNB-19 CNS = test system: SNB-19 CNS
UACC-62 melanoma = test system: UACC-62 melanoma

Row | SMILES | GI50 (CAKI-1 renal) [µM] | TGI (CAKI-1 renal) [µM] | GI50 (CCRF-CEM leukemia) [µM] | TGI (CCRF-CEM leukemia) [µM] | GI50 (EKVX NSCLC) [µM] | TGI (EKVX NSCLC) [µM] | GI50 (HS 578T breast) [µM] | TGI (HS 578T breast) [µM] | GI50 (LOX IMVI melanoma) [µM] | TGI (LOX IMVI melanoma) [µM] | GI50 (NCI-H226 lung) [µM] | TGI (NCI-H226 lung) [µM] | GI50 (SF-539 CNS) [µM] | TGI (SF-539 CNS) [µM] | GI50 (SK-MEL-2 melanoma) [µM] | TGI (SK-MEL-2 melanoma) [µM] | GI50 (SNB-19 CNS) [µM] | TGI (SNB-19 CNS) [µM] | GI50 (UACC-62 melanoma) [µM] | TGI (UACC-62 melanoma) [µM]
1 | Cc1cccc(Cc2cnc(NC(=O)/C=C/c3ccco3)s2)c1 | 0.0459 | > 100 | 0.0433 | > 100 | 0.0581 | > 100 | 0.0313 | > 100 | 0.0683 | > 100 | 0.797 | > 23.1 | 0.026 | 0.0752 | 0.0737 | > 100 | 0.0488 | > 100 | 0.0542 | > 100
2 | COC(=O)CCCCCCCCC(=O)c1c(C)[nH]c(/C=C2\N=C(c3ccc[nH]3)C=C2OC)c1C | 26.6 | > 87.7 | 2.3 | > 100 | > 100 | > 100 | > 33 | > 100 | 0.207 | 0.466 | 8.72 | > 100 | > 55.1 | > 100 | 8.85 | > 29.1 | 59.1 | > 100 | 10.7 | > 82.9
3 | NC(=S)c1cn(C2OC(CO)C(O)C2O)c2ncnc(N)c12 (centres undefined) | 0.221 | 2.22 | 0.153 | 0.507 | 0.25 |  | 0.254 | 2.54 | 0.139 | 2.49 | 0.602 | > 21.1 | 0.27 | 1.55 | 0.175 | 0.605 | 0.411 | 13.7 | 0.124 | 0.406
4 | COC(=O)C1=C(C)NC(C)=C(C(=O)OC)C1c1ccccc1[N+](=O)[O-] | 38.8 | > 100 | > 100 | > 100 | 64.3 | > 100 | 32.4 | > 100 | > 100 | > 100 | 87.6 | > 100 | > 100 | > 100 | > 100 | > 100 | > 100 | > 100 | 29.6 | > 100
5 | O=C(O)c1ccccc1/C=C1/Nc2ccccc2C1=O |  | > 100 |  | > 100 |  | > 100 |  | > 100 |  | > 100 |  | > 100 |  | > 100 |  | > 100 |  | > 100 |  | > 100
6 | S=C1NC2=C(CCOc3c2ccc2ccccc32)C(c2ccc(Cl)cc2)N1 (centres undefined) | 32.5 | 72.5 | 30.6 | > 100 | 20.2 | 86 | 21.5 | 73.5 | 40.2 | > 100 | 17 | 49.5 | 20.8 | 56.9 | 80.9 | > 100 | 56.4 | > 100 | 21.7 | 76.4
7 | Nc1cc2ccncc2c2ccccc12 | 18.4 | > 100 | 12.6 | 99.1 | 19.3 | > 100 | 13.9 | 40.4 | 8.68 | > 100 | 5.75 | 73.6 | 13.4 | 34 | 13.6 | 30 | 19.5 | > 100 | 13.5 | 38.7
8 | CCOC(=O)CCC(NC(=O)c1ccc(Nc2nc3cc(N)cc(N)c3nc2-c2ccccc2)cc1)C(=O)OCC (centres undefined) | > 52.6 | > 100 | 5.15 | > 100 | > 53.8 | > 100 | 33.3 | 75 | 25.4 | > 100 | > 51.6 | > 74.1 | 27.3 | > 100 | 16.5 | > 86 | > 46.4 | > 100 | 12.6 | > 38.2
